{"source": "patent US20100081862A1", "about": "“Composition and method to modify sperm function and increase male gender ratio in mammals” (priority 2008, published 2010)", "origin": "cited, not measured here", "key": {"[1]": {"test_system": "Hexose Monophosphate Shunt (HMS)", "conditions": "bovine oocytes"}, "[2]": {"test_system": "early-staged mouse embryos", "conditions": "living early-staged mouse embryos, transplanted to produce normal living offspring"}}}
{"smiles": "CCN(CC)c1cc2c(cc1C)Nc1ccc(N)cc1O2", "note": "[BCB, 2-methyl-3-diethylamino-7-amino phenoxazine]", "values": [{"measurement": "increase in oxidation of glucose through the HMS", "setting": "[1]", "result": 15, "unit": "fold"}, {"measurement": "increase in glucose metabolism through glycolysis", "setting": "[1]; compared with the increase through the HMS", "result": "somewhat less increase"}, {"measurement": "toxicity of BCB and its metabolites", "setting": "[2]", "result": "relatively non-toxic"}]}
